Values quoted from earlier work in patent US20260263393A1, “CO[…], […] COMBINATION WITH N-ACYLETHANOLAMINES, AND USES THEREOF” (Clearmind Labs Corp., priority 2023, published 2026).

Conditions: ibogaine administered to treat drug dependence

CC[C@H]1CC2C[C@H]3c4[nH]c5ccc(OC)cc5c4CC[N@@](C2)C13 [ibogaine, Ibogaine]
reduction in drug craving (duration): up to several weeks | sustained resolution of the withdrawal syndromes (time to): 12 to 18 h
